Data on 25 compounds can be found in ChEMBL document CHEMBL6182847, “Design, synthesis, and biological evaluation of novel aminopyrimidine derivatives as EGFR inhibitors” (Bioorg Med Chem Lett, 2025).

For assay [1], the target named is Epidermal growth factor receptor (Homo sapiens, UniProt P00533). As to the kind of experiment: Inhibition of wild-type EGFR (unknown origin).
For assay [2], the target named is Epidermal growth factor receptor (Homo sapiens, UniProt P00533, C797S/L858R/T790M). As to the kind of experiment: Inhibition of EGFR L858R/T790M/C797S mutant (unknown origin).
Assay [3] relates to Epidermal growth factor receptor (Homo sapiens), P00533 [L858R,T790M,C797S]. The following applies: dose 500.0 nM.
Description: Inhibition of EGFR L858R/T790M/C797S mutant (unknown origin) at 500 nM relative to control
Another assay can be described thus: cells. The conditions noted are these: Mus musculus, Ba/F3 EGFR-T790M/C797S/L858R.
Assay [4] can be described thus: Potency index, ratio of Brigatinib IC50 to test compound IC50 for antiproliferative activity against mouse Ba/F3 EGFR-T790M/C797S/L858R cells. In kind it is functional.

Each structure is given as a SMILES string.

Chain of Epidermal growth factor receptor (Homo sapiens, UniProt P00533) (P00533 whole entry): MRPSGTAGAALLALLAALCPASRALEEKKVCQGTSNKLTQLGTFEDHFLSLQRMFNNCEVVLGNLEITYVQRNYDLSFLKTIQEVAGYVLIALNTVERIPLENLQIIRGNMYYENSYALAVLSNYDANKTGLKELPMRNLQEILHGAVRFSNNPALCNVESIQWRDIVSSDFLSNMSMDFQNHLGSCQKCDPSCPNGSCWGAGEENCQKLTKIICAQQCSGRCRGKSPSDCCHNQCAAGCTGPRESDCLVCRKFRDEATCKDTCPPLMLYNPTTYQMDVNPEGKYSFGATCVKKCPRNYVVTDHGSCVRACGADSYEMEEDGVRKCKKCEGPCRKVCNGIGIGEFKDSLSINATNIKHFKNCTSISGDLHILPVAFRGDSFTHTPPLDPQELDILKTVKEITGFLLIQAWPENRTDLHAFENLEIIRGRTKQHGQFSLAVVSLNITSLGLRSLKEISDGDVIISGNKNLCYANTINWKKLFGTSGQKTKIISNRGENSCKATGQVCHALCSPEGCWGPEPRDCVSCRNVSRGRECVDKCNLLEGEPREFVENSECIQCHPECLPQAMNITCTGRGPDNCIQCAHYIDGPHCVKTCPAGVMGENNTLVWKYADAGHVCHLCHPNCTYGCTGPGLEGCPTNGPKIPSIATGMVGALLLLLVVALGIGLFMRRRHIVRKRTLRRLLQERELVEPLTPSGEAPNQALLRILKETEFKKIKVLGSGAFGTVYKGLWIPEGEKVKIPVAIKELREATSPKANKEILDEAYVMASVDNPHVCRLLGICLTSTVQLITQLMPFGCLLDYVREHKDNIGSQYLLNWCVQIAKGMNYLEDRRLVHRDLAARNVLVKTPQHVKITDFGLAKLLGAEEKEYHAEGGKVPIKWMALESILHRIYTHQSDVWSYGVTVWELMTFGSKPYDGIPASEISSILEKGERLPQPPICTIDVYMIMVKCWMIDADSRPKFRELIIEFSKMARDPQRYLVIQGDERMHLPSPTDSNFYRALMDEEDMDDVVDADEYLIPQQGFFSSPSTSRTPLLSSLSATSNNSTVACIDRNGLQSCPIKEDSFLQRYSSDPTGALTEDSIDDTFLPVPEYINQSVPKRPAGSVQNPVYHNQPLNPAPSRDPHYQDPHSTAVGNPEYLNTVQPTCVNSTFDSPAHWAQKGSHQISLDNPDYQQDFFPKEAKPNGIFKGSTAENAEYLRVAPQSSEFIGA
Chain of Epidermal growth factor receptor (Homo sapiens), P00533 [L858R,T790M,C797S] (P00533 whole entry T790M/C797S/L858R): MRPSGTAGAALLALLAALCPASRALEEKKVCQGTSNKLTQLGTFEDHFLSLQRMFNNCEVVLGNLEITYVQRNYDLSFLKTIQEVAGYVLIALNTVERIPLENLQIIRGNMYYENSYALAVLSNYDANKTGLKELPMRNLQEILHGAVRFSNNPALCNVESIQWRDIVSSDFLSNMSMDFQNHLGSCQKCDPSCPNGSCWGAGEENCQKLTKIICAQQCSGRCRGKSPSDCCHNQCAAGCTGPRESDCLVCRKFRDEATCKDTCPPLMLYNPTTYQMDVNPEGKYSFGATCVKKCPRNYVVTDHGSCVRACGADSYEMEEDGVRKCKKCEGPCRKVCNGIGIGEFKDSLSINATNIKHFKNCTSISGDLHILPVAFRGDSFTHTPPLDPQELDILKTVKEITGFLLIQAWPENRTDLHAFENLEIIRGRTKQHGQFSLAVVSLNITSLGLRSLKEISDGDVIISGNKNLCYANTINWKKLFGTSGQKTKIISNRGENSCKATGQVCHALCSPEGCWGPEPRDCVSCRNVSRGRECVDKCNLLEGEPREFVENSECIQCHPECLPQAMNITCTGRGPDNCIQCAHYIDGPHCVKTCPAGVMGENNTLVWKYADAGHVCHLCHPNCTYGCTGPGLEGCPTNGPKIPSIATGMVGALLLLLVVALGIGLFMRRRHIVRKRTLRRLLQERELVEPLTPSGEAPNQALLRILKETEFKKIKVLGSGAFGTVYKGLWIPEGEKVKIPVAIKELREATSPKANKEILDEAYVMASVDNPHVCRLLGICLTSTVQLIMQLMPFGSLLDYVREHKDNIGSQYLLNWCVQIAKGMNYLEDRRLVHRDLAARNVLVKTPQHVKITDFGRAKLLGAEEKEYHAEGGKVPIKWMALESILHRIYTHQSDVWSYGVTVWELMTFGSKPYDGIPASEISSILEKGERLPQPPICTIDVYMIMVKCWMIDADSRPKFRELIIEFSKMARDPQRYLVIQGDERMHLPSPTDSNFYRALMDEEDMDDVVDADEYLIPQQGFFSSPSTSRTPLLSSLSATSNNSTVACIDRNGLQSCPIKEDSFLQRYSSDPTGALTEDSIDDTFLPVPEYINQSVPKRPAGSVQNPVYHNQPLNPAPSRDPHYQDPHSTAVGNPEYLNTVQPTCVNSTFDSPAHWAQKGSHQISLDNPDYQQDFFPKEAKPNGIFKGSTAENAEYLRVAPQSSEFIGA
Chain of Epidermal growth factor receptor (Homo sapiens, UniProt P00533, C797S/L858R/T790M) (P00533 25-1210 T790M/C797S/L858R limits assumed): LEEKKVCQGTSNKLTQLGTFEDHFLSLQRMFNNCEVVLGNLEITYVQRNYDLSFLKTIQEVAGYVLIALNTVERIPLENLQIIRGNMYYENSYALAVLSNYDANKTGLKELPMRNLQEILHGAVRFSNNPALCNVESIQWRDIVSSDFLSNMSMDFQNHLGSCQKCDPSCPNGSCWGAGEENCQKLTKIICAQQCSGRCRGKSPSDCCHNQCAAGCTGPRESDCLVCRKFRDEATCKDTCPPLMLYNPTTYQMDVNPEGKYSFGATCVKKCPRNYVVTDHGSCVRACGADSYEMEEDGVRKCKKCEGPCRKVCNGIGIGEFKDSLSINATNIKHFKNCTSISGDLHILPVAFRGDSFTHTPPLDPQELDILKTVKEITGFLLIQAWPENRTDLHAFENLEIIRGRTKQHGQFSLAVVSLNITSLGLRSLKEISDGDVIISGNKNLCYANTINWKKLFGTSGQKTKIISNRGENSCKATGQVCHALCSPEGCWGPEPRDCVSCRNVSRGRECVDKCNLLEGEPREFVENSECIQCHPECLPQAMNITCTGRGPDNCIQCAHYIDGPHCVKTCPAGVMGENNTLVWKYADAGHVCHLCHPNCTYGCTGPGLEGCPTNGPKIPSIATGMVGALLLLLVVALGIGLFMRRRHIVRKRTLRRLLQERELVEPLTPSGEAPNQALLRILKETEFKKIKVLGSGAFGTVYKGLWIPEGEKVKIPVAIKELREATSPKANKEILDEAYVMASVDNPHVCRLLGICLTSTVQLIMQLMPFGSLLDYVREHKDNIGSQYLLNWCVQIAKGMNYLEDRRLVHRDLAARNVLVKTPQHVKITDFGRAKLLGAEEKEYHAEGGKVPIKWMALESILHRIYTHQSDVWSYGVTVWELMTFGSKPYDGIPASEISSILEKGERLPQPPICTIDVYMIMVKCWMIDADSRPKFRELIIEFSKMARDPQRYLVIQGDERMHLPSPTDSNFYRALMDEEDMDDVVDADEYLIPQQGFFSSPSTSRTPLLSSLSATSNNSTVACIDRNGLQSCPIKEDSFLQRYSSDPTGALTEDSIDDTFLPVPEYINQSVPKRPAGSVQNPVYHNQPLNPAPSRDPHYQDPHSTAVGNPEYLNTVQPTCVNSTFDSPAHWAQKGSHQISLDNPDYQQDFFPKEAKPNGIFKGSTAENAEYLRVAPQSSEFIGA
Description for cells: Antiproliferative activity against mouse Ba/F3 EGFR-T790M/C797S/L858R cells

Turning to `COc1cc(N2CCC(N3CCN(C)CC3)CC2)c(C)cc1Nc1nccc(-n2cc(NC(=O)C=C(C)C)cn2)n1`, the IC50 (in general, the point on the concentration scale where inhibition reaches its midpoint) in assay [1] was determined as 382 nM; in assay [2] it was 53.4 nM; in “cells”, 213 nM. Further, the inhibition (in general, the relative decrease from the control value, in per cent) in assay [3] is 87.2%.
Regarding `C=CC(=O)Nc1cnn(-c2ccnc(Nc3cc(C)c(N4CCN(C(C)=O)CC4)cc3OC)n2)c1`, in assay [3], the inhibition amounted to 48.8%.
The compound `CCC(=O)Nc1cnn(-c2ccnc(Nc3cc(C)c(N4CCC(N5CCN(C)CC5)CC4)cc3OC)n2)c1` displayed an inhibition in assay [3] of 85.4%.
Same read-out and setting: the same measure for `C=CC(=O)Nc1cnn(-c2ccnc(Nc3cc(C)c(N4CCN(C)CC4)cc3OC)n2)c1`: 47.3%; for `C=CC(=O)Nc1ccccc1-c1ccn(-c2nc(Nc3cc(C)c(N4CCC(N5CCN(C)CC5)CC4)cc3OC)ncc2Br)n1`: 79.9%.
`C=C(C)C(=O)Nc1cnn(-c2ccnc(Nc3cc(C)c(N4CCC(N5CCN(C)CC5)CC4)cc3OC)n2)c1` gave an inhibition in assay [3] of 83.8%.
In the case of `COc1cc(N2CCC(N3CCN(C)CC3)CC2)c(C)cc1Nc1nccc(-n2cc(NS(=O)(=O)C3CC3)cn2)n1`, the values for the concentration for half-maximal inhibition (IC50) (in assay [1]; in assay [2]; in “cells”) were 159 nM, 18.8 nM and 97.1 nM, respectively. This compound displayed an inhibition in assay [3] of 93.2%. Moreover, in assay [4], the “Ratio IC50” value is reported as 5.
As for `COc1cc(N2CCC(N3CCN(C)CC3)CC2)c(C)cc1Nc1ncc(Br)c(-n2ccc(-c3ccccc3NS(=O)(=O)C3CC3)n2)n1`, the figures for the IC50 (in assay [1]; in assay [2]; in the assay “cells”) were over 5000 nM, 93.8 nM and 340 nM, respectively. Moreover, the inhibition in assay [3] is 81.8%.
In assay [3], `COc1cc(N2CCC(N3CCN(C)CC3)CC2)c(C)cc1Nc1nccc(-n2cc(NC(C)=O)cn2)n1` had an inhibition of 82.6%.
On to `COc1cc(N2CCC(N3CCN(C)CC3)CC2)c(C)cc1Nc1nccc(-n2cc(NC(=O)C(C)C)cn2)n1`, for which, in assay [3], the inhibition came to 80.4%.
As to `C=CC(=O)Nc1cnn(-c2ccnc(Nc3cc(C)c(N4CCC(N5CCN(C)CC5)CC4)cc3OC)n2)c1`, the 50% inhibitory concentration (IC50) is 485 nM in assay [1], 78.2 nM in assay [2] and 238 nM in the assay “cells”. Further, the inhibition in assay [3] was determined as 80%.
Take `CCCS(=O)(=O)Nc1cnn(-c2ccnc(Nc3cc(C)c(N4CCC(N5CCN(C)CC5)CC4)cc3OC)n2)c1`: the inhibition in assay [3] is 89.1%.
In turn, `COc1cc(N2CCC(N3CCN(C)CC3)CC2)ccc1Nc1ncc(Cl)c(Nc2ccccc2P(C)(C)=O)n1` [BRIGATINIB] showed an IC50 in “cells” of 542 nM.
In turn, `COc1cc(N2CCC(N3CCN(C)CC3)CC2)c(C)cc1Nc1nccc(-n2cc(NS(C)(=O)=O)cn2)n1` displayed an inhibition in assay [3] of 88.1%.
In assay [3], `CCS(=O)(=O)Nc1cnn(-c2ccnc(Nc3cc(C)c(N4CCC(N5CCN(C)CC5)CC4)cc3OC)n2)c1` had an inhibition of 89%.
For the compound `C=CC(=O)Nc1cnn(-c2ccnc(Nc3cc(C)c(N4CCN(C(C)C)CC4)cc3OC)n2)c1`, the inhibition in assay [3] was found to be 46.1%.
For the compound `COc1cc(N2CCC(N3CCN(C)CC3)CC2)c(C)cc1Nc1nccc(-n2cc(NC(=O)C3CC3)cn2)n1`, the IC50 in assay [1] turned out to be 338 nM; in assay [2] it was 37.6 nM; in the assay “cells” it was 136 nM. The inhibition in assay [3] was 89.8%.
With `C=CC(=O)Nc1cnn(-c2ccnc(Nc3cc(C)c(N4CCC(N(C)C)CC4)cc3OC)n2)c1`, the inhibition in assay [3] was determined as 61.1%.
Same read-out and setting: the same measure for `COc1cc(N2CCC(N3CCN(C)CC3)CC2)c(C)cc1Nc1nccc(-n2cc(NS(=O)(=O)C(C)C)cn2)n1`: 90.2%.
Regarding `C=CC(=O)Nc1cnn(-c2ccnc(Nc3cc(C)c(N4CCOCC4)cc3OC)n2)c1`, the inhibition in assay [3] came to 48.5%.
Same read-out and setting: the same measure for `CCCCS(=O)(=O)Nc1cnn(-c2ccnc(Nc3cc(C)c(N4CCC(N5CCN(C)CC5)CC4)cc3OC)n2)c1`: 90.2%.
`CCS(=O)(=O)Nc1ccccc1-c1ccn(-c2nc(Nc3cc(C)c(N4CCC(N5CCN(C)CC5)CC4)cc3OC)ncc2Br)n1` had an inhibition in assay [3] of 71.4%.
`C/C=C/C(=O)Nc1cnn(-c2ccnc(Nc3cc(C)c(N4CCC(N5CCN(C)CC5)CC4)cc3OC)n2)c1` showed an inhibition in assay [3] of 81.9%.
In assay [3], `C=CC(=O)Nc1cnn(-c2ccnc(Nc3cc(C)c(N4CCC(N5CCCC5)CC4)cc3OC)n2)c1` returned an inhibition of 75.7%.
Turning to `C=CC(=O)Nc1cnn(-c2ccnc(Nc3cc(C)c(N4CCN(S(C)(=O)=O)CC4)cc3OC)n2)c1`, the inhibition in assay [3] came to 54.3%.
